The values below come from ChEMBL document CHEMBL1201862, “PubChem BioAssay data set” (2004).

Structures are written as SMILES. Counter-ions that a name gives are not always drawn. The source made the active and inactive calls.

One may read the EC50 as the concentration giving half of the maximal effect. The AC50 is the concentration giving half of the maximal activity seen. As a reminder, the IC50 is the concentration that inhibits the measured activity by half. One may read the CC50 as the concentration that lowers cell viability or growth by half.

For data set [1], the system named is Streptococcus. The data set can be described thus: GAS UMAA2166 growth inhibition – luminescence, BacTiterGlo, counter-screen for streptokinase expression inhibitor project, dose response (AID 1915).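 Also: potency for reduction of bacterial viability or growth.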 It counts as functional, organism-based. (The purpose of a counterscreen is to sort out artefacts and off-target activity.)
Data set [2] deals with Escherichia coli. The data set can be described thus: microbe, parasite or virus in culture.
The test system of data set [3] is Escherichia coli. The data set can be described thus: microbe, parasite or virus in culture. This is another data set of the same source.
Data set [4] has as its system Streptococcus sp. 'group A'. The data set can be described thus: Streptococcus pyogenes SK(-)GAS viability under kanamycin – luminescence, BacTiterGlo, confirmation, counter-screen for streptokinase expression inhibitor project, dose response (AID 1900). It counts as functional, organism-based.
Data set [5] in a line: off-target signal loss in HeLa-CEM21 co-culture – HeLa F-luc CTL cells, cherry-picked, counter-screen for HIV-1 Env fusion inhibitor project, dose response (AID 652040).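 Also: potency for signal decrease marking cytotoxic or nonspecific inhibition.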 It counts as functional, cell-based.
Data set [6] concerns the target G-protein coupled receptor 55 (Homo sapiens, UniProt Q9Y2T6). In words: blockers of GPR55 signalling, imaged – imaging, image-based, counter-screen for GPR35 antagonist project, SAR follow-up (AID 2397). It counts as functional.
The test system of data set [7] is HEK293. In words: NOD2 signaling inhibitors in MDP-stimulated cells, cell-based, uHTS, luminescence (AID 2001). It counts as functional. As to conditions: Homo sapiens.
Data set [8] deals with HEK293. The data set can be described thus: cells. It counts as functional, cell-based. As to conditions: Homo sapiens.
The test system of data set [9] is HEK293. The data set can be described thus: cells. It counts as functional, cell-based. As to conditions: Homo sapiens. The source holds these as a separate data set.
Data set [10] relates to HEK293. The data set can be described thus: inhibition of NOD1-driven NF-kB reporter – cell-based, luminescence, uHTS, primary screen (AID 1578). As to conditions: Homo sapiens. It counts as functional.
Data set [11] has as its target Paired box protein Pax-8 (Homo sapiens, UniProt Q06710). The data set can be described thus: PAX8 transcriptional activity inhibition in RMG-I – RMG-I cells, luciferase, cherry-pick, dose response (AID 687027).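 Also: luciferase reporter driven by Pax8 target thyroperoxidase promoter measured by SteadyGlo luminescence.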 It counts as functional, cell-based.
Data set [12] can be described thus: blockers of bursicon-stimulated LGR2 cAMP reporter – cell-based, HEK293, CRE-luciferase reporter, cherry pick, set 2, dose response (AID 743343).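 Also: transfected cells were stimulated with diluted bursicon conditioned medium after compound addition.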 It counts as functional. (In a reporter assay the amount or activity of a reporter protein is the signal.)
Data set [13] can be described thus: A549 cell cytotoxicity, dose response, cytotoxicity control, plate reader, cherry-pick, antagonist series (AID 743412). It counts as functional, cell-based.
The nature of data set [14]: blockade of melanocortin 4 receptor signaling – cell-based, plate reader, cherry pick, counter-screen for LGR2 antagonist project, dose response (AID 743444).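 Also: transfected HEK 293 cells stimulated with alpha-MSH peptide; potency of inhibitors of the alpha-MSH evoked signal.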 It counts as functional.
A short description of data set [15]: viability loss in HEK293 cells – cell-based, plate reader, cherry-picked samples, cytotoxicity control, dose response (AID 743446). It counts as functional.
The nature of data set [16]: Fluorescence-based cell-based high throughput dose response assay for inhibitors of the interaction of nucleotide-binding oligomerization domain containing 2 (NOD2) and the receptor-interacting serine-threonine kinase 2 (RIPK2). It counts as functional. As to conditions: Homo sapiens.
A short description of data set [17]: toxicity toward HepG2 liver cells – cell-based, plate reader, cherry-pick, antagonist series, cytotoxicity control, dose response (AID 743416). It counts as functional.
For data set [18], the target named is DNA damage-inducible transcript 3 protein (Mus musculus, UniProt P35639). It counts as functional, Cricetulus griseus.
DNA damage-inducible transcript 3 protein, sequence (P35639 whole entry): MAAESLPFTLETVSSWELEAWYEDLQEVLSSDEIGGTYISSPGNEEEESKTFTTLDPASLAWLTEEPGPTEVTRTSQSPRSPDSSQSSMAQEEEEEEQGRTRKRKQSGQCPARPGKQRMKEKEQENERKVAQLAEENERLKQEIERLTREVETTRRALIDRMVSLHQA
The target of data set [19] is T1, X-box-binding protein 1 (Homo sapiens, UniProt P17861).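 Also: confirmatory dose-response counter-screen serving a CHOP assay.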
T1 sequence (P17861 whole entry): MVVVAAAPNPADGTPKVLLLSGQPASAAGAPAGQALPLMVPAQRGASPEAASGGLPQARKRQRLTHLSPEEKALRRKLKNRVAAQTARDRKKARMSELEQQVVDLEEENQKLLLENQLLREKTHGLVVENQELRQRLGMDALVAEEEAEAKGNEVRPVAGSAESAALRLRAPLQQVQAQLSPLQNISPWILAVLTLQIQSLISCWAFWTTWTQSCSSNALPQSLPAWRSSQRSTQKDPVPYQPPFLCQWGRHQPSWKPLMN
It counts as functional, Cricetulus griseus.

Data set [20] concerns the target T2, Streptokinase A (Streptococcus pyogenes serotype M1, UniProt P10520).
T2 sequence (P10520 whole entry): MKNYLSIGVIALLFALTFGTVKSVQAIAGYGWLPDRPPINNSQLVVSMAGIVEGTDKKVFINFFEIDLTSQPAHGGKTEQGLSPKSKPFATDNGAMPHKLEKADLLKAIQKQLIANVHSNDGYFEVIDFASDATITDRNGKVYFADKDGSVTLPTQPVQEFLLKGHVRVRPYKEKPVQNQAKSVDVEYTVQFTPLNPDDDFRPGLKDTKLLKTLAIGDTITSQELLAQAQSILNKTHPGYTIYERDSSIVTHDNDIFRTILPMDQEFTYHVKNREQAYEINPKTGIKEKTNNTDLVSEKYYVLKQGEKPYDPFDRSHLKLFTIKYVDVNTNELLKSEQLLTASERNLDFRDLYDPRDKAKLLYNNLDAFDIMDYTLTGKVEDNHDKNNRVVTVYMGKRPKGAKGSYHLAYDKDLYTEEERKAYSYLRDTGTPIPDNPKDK
In words: viability-normalized secreted streptokinase activity reduction – plasminogen activation absorbance, OD405, dose response (AID 1914).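 Also: secreted streptokinase activity via plasminogen activation per viability signal from cell pellet.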 It counts as functional, Streptococcus pyogenes M1 GAS.

Data set [21] addresses Peroxisome proliferator-activated receptor gamma/Nuclear receptor coactivator 2 (Homo sapiens, UniProt P37231). The data set can be described thus: TR-FRET dose response biochemical High Throughput Screening assay for agonists of the steroid receptor coactivator 2 (SRC-2) recruitment by the peroxisome proliferator-activated receptor gamma (PPAR gamma): non-selective agonists. [Related pubchem assays: 1297, 1032 ]. It counts as functional. A general note: TR-FRET usually uses a lanthanide donor and a delayed reading to cut background.

Data set [22] can be described thus: viability of uninfected HEp-2 cells – cell-based, HTS, cytotoxicity control for RSV inhibitor project, dose response (AID 2410). It counts as functional. As to conditions: human respiratory syncytial virus.
Data set [23] concerns the target Peroxisome proliferator-activated receptor gamma/Nuclear receptor coactivator 1 (Homo sapiens, UniProt P37231). In words: TR-FRET dose response biochemical High Throughput Screening assay for agonists of the steroid receptor coactivator 1 (SRC-1) recruitment by the peroxisome proliferator-activated receptor gamma (PPAR gamma): non-selective agonists. [Related pubchem assays (depositor defined):AID1300, AID1808, AID504735, AID631]. It counts as protein assay.

For data set [24], the target named is Peroxisome proliferator-activated receptor gamma/Nuclear receptor coactivator 3 (Homo sapiens, UniProt P37231). In words: TR-FRET dose response biochemical High Throughput Screening assay for agonists of the steroid receptor coactivator 3 (SRC-3) recruitment by the peroxisome proliferator-activated receptor gamma (PPAR gamma): non-selective agonists. [Related pubchem assays: 1301 (Confirmation screen.), 1048 (Primary screen.)]. It counts as functional.
Peroxisome proliferator-activated receptor gamma/Nuclear receptor coactivator 3, sequence (P37231 whole entry): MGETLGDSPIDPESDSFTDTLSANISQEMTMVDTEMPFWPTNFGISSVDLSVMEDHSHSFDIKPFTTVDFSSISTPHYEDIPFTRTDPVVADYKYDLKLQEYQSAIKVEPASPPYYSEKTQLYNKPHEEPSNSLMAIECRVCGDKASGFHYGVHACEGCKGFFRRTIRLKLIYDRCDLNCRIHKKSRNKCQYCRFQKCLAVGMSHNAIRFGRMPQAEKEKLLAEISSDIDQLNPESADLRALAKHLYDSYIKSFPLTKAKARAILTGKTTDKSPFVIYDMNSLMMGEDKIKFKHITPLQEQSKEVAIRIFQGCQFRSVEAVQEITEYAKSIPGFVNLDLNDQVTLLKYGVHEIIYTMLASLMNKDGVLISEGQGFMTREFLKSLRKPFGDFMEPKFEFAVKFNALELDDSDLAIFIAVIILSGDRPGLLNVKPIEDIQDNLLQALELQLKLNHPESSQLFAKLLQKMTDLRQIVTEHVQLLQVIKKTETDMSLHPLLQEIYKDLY
Peroxisome proliferator-activated receptor gamma/Nuclear receptor coactivator 3, sequence (Q9Y6Q9 whole entry, further chain): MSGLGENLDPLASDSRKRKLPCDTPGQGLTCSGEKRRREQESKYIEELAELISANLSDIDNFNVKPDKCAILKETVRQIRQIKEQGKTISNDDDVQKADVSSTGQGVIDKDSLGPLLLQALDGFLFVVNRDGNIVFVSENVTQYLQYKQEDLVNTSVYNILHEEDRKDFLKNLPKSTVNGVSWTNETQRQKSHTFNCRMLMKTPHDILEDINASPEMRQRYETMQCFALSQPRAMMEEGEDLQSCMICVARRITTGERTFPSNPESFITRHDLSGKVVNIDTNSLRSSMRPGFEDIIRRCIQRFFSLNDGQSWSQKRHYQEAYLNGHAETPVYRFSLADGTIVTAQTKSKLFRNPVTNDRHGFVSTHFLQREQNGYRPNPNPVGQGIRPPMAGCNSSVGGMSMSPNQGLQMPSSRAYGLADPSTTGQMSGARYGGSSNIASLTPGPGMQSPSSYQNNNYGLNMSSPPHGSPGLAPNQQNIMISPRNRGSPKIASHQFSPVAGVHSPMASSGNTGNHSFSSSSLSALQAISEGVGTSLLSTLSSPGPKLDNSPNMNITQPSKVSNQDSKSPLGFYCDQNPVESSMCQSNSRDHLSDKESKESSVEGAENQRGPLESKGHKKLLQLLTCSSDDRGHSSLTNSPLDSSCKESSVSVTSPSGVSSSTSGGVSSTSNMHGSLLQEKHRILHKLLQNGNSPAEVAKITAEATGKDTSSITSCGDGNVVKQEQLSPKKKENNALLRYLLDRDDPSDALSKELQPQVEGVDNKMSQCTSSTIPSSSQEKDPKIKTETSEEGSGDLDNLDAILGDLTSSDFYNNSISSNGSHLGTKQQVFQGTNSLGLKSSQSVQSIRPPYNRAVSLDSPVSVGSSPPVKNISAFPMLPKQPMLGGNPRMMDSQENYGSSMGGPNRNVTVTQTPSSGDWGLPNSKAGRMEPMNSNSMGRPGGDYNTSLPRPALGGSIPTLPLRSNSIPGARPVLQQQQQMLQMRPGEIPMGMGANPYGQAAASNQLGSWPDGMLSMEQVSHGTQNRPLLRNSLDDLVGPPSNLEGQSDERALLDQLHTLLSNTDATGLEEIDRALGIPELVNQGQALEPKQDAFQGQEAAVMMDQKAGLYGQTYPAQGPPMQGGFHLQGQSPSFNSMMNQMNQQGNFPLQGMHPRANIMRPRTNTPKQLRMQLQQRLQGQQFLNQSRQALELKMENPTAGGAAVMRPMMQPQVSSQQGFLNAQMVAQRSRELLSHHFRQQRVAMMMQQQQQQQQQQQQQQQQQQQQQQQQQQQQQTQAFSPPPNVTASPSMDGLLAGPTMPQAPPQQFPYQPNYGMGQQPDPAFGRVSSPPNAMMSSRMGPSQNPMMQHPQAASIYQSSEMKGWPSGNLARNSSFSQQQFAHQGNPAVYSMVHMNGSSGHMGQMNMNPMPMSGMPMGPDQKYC

Data set [25] deals with Protein-tyrosine kinase 2-beta (Homo sapiens, UniProt Q14289).
Data set [26] relates to Streptococcus. In words: Luminescence Microorganism-Based Dose Response Follow up to Identify Compounds Cytotoxic to Streptococcus. [Related pubchem assays: 1677 (Project Summary), 1915, 1914, 1902 (Retest at Dose), 1900 (Counter Screen), 1662 (Primary HTS)]. It counts as functional, organism-based.
Data set [27] has as its target T3, Cytochrome P450 1A2 (Homo sapiens, UniProt P05177).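 Also: PubChem cytochrome P450 panel assay, CYP1A2 panel member.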
T3 sequence (P05177 whole entry): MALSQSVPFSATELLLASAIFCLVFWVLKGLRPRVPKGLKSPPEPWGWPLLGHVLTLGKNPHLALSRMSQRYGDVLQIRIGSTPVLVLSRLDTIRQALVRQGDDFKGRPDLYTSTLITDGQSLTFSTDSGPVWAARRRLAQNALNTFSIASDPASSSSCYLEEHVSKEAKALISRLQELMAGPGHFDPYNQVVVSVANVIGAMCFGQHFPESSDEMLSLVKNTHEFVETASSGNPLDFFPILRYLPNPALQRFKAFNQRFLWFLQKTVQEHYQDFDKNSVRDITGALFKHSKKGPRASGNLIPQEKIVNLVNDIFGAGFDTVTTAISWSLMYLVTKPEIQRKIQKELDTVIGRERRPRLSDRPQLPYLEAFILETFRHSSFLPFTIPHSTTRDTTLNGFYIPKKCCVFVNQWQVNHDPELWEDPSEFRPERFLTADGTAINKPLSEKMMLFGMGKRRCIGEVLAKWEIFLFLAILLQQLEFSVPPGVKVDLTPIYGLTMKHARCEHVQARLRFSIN

The target of data set [28] is Cytochrome P450 2C19 (Homo sapiens, UniProt P33261). In words: Cytochrome panel assay with activity outcomes. Panel member name: p450-cyp2c19 Compounds with AC50 equal or less than 10 uM are considered active. It counts as functional. The following applies: read-out: AC50.
Cytochrome P450 2C19, sequence (P33261 whole entry): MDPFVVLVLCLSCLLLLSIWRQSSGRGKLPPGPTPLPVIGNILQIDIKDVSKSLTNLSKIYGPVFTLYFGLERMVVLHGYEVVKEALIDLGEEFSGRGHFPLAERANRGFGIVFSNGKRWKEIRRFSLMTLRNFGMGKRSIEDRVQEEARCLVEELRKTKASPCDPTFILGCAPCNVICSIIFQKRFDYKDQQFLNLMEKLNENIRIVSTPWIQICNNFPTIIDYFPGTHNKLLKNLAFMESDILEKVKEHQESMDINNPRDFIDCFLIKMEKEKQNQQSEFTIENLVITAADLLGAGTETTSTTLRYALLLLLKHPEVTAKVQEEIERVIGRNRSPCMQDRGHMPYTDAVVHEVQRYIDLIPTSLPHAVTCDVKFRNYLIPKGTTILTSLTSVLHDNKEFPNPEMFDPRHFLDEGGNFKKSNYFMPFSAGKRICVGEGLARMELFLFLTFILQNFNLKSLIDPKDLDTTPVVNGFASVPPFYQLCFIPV
For data set [29], the target named is Cytochrome P450 3A4 (Homo sapiens, UniProt P08684).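 Also: CYP3A4 tested as one member of a cytochrome P450 panel screen.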
Cytochrome P450 3A4, sequence (P08684 whole entry): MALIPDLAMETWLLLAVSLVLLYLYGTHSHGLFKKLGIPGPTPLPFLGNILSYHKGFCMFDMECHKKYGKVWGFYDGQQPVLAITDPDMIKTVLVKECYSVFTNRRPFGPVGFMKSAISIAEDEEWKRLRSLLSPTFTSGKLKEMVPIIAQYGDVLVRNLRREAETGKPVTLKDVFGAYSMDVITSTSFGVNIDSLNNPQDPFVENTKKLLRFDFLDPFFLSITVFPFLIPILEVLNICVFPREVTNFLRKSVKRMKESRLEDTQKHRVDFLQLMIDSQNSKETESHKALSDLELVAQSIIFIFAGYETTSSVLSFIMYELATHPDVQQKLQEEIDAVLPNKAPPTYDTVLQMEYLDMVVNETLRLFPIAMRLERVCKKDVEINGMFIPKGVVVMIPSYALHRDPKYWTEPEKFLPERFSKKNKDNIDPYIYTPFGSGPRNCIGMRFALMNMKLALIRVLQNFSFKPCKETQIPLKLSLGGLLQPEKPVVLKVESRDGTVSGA
Data set [30] has as its target T4, Mannose-6-phosphate isomerase (Homo sapiens, UniProt P34949).
T4 sequence (P34949 whole entry): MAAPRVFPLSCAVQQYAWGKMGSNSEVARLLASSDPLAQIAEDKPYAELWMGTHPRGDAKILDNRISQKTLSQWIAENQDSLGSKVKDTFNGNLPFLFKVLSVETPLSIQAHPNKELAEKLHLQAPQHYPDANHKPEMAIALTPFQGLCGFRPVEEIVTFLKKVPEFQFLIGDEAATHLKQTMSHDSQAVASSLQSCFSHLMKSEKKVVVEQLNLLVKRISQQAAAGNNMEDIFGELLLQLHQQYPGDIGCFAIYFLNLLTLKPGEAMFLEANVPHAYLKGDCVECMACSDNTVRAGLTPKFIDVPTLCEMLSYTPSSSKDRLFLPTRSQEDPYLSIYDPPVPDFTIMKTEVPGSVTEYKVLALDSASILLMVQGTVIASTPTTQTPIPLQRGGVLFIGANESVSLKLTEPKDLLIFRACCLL
The data set can be described thus: phosphomannose isomerase inhibition – biochemical, fluorescence intensity, confirmation (AID 1535).

For data set [31], the target named is Phosphomannomutase 2 (Homo sapiens, UniProt O15305). The data set can be described thus: Counter screen SAR assay for PMM2 inhibitors via a fluorescence intensity assay. [Related pubchem assays (depositor defined):AID1545, AID1574].
Phosphomannomutase 2, sequence (O15305 whole entry): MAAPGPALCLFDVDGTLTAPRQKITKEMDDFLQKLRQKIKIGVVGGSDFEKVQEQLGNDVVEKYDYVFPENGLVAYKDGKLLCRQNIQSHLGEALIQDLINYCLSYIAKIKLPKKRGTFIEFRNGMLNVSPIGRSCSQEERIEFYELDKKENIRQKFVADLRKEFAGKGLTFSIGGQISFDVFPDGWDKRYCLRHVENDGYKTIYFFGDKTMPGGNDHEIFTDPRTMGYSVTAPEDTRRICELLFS

G-protein coupled receptor 55, sequence (Q9Y2T6 whole entry): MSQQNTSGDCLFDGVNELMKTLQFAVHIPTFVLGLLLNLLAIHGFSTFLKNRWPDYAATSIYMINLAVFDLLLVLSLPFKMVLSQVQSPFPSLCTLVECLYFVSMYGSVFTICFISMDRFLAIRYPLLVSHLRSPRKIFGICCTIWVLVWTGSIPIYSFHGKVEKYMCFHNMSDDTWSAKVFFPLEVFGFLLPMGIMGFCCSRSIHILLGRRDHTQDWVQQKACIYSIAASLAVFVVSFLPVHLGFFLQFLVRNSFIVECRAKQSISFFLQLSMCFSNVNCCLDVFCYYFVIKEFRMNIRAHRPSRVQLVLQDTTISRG
Paired box protein Pax-8, sequence (Q06710 whole entry): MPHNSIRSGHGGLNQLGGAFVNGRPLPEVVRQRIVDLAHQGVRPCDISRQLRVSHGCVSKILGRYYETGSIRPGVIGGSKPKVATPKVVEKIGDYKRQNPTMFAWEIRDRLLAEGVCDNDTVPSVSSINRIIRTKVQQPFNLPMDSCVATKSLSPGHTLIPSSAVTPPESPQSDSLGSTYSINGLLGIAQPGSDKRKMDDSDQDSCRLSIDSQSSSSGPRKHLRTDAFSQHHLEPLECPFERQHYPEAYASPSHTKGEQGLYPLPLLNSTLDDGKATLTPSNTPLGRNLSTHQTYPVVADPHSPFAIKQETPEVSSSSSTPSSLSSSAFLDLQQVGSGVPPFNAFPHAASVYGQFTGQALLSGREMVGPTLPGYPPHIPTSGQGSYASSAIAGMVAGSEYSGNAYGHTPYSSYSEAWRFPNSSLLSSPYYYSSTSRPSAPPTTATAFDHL

With `CN(C)[C@@H]1C(O)=C(C(N)=O)C(=O)[C@@]2(O)C(O)=C3C(=O)c4c(O)ccc(Cl)c4[C@@](C)(O)[C@H]3C[C@@H]12` [CHLORTETRACYCLINE HYDROCHLORIDE], the EC50 in [1] is 0.148 µM (active); in [4], < 0.06 µM (active). In addition, the AC50 is 0.93 µM (active) in [2] and 19.8 µM (active) in data set [3].
Regarding `Cc1ccc(Cn2ncc3c(N4CCN(c5ccc(C)cc5)CC4)ncnc32)cc1`, the AC50 in data set [5] was 6.95 µM (active). Also, the IC50 in data set [6] is > 32 µM (inactive).
Regarding `COc1cc(S(=O)(=O)NCc2ccncc2)ccc1Br`, the IC50 in [7] is > 20 µM (inactive); in data set [8] it was 16.5 µM (active); in [9] it was > 20 µM (inactive). Further, the concentration for a half-maximal effect (EC50) in [10] was 3.02 µM (active).
Regarding `N#CC1c2ccccc2-n2nncc2CN1Cc1cc(Cl)cc(Cl)c1` (stereo unspecified), the half-maximal activity concentration (AC50) in data set [11] is 10.2 µM (active); in [12], 3.37 µM (active); in [13] it was 15.2 µM (active); in data set [2] it was 2.36 µM (active); in data set [14] it was 2.45 µM (active); in data set [3], 22.5 µM (active). The AC50 was 6.5 µM (active) in data set [15] and 7.48 µM (active) in [17]. The half-maximal inhibitory concentration (IC50) in data set [16] was 5.8 µM (active).
Take `Cc1nc(N2CCC(C)CC2)c2c(C)c(C(=O)Nc3ccc(C)c(F)c3)sc2n1`: in data set [6], the IC50 was > 32 µM (inactive).
For `O=C1NC(=O)N(Cc2ccco2)C(=O)/C1=C/C=C/c1ccco1`, the IC50 was > 20 µM (inactive) in data set [7], 16.2 µM (active) in data set [8] and > 20 µM (inactive) in data set [9]. Besides, the “Absolute IC50 (CHOP)” value in data set [18] was found to be 10 µM. Moreover, the “Absolute IC50 (XBP1)” value in data set [19] was found to be 10 µM. In addition, the EC50 in data set [10] is > 20 µM (inactive).
On to `COc1ccc(-c2nc(-c3cccs3)c(-c3cccs3)[nH]2)cc1OC`, for which the EC50 in [20] is 1.41 µM (active); in [21] it was 15.6 µM (not active); in [1] it was > 150 µM (not active); in [4], 2.57 µM (active); in data set [23], 13.9 µM (inactive); in data set [24] it was > 79.4 µM (not active). Besides, the EC50 in [26] was 5.41 µM (active). Also, the cytotoxic concentration (CC50) in [22] was 23.4 µM (active). The half-maximal inhibitory concentration (IC50) in [25] is > 69.5 µM (not active).
Consider `c1ccc(CN2CCC3(CCCc4ccccc43)CC2)cc1`, for which the half-maximal activity concentration (AC50) is 31.6 µM (inconclusive) in data set [27], 10 µM (inconclusive) in [28] and “inconclusive” in data set [29].
For the compound `Clc1cccc(/N=c2\ssnc2Cl)c1`, the IC50 was 51.1 µM (active) in data set [30] and > 100 µM (inactive) in data set [31].
For `CCc1nnc(NC(=O)CCC(=O)N2CCN(c3ccccn3)CC2)s1`, the AC50 entry in [29] was “inconclusive”.
